Patent EP1073451B1, “D[…] TREATING ISCHEMIA” (University of Kentucky Research Foundation, priority 1998, dated 2002)

Test system: focal middle cerebral arterial occlusion (MCAO) ischemia
Settings: for infarct volume reduced compared to control animals: after 24 h of reperfusion; for infarct volume reduced compared to control animals / MABP, pO2, pCO2, pH or rectal temperature versus control animals: 4 mg/kg i.p. x4 prior to 1 h MCAO; for neurological deficits: behavior ranking 0 (normal) to 3 (severe), 4 mg/kg i.p. at 6.5 h, 4.5 h, 2.5 h and 0.5 h prior to ischemic injury, 1 h MCAO, mean ± SEM; for neurological deficits / infarct volume: n=8; for infarct volume: 4 mg/kg; for MABP, pO2, pCO2, pH or rectal temperature versus control animals: post ischemia

Compound	infarct volume reduced compared to control animals [%]	neurological deficits	infarct volume [mm^2]	MABP, pO2, pCO2, pH or rectal temperature versus control animals
CC(C)C[C@@H](NC(=O)[C@H](Cc1ccccc1)NC(=O)CNC(=O)[C@@H](C)NC(=O)[C@@H](N)Cc1ccc(O)cc1)C(=O)O [DADLE, Tyr-D-Ala-Gly-Phe-D-Leu-enkephalin]	12	1.73 ± 0.20	67 ± 9	no significant differences
Tyr-Ala-Phe-Asp-Val-Val-Gly-NH2 [deltorphin]	42	0.44 ± 0.11	45 ± 10	no significant differences
